Measurements reported in publication PMC2726771 (The Journal of neuroscience : the official journal of the …, 2009).
Where “and” joins values, the source holds several entries; their conditions need not be identical. Equal values may be shown once. Read-outs that look alike come from different tables or passages of the source. Each block holds one compound with its values, some of them ahead of it.

Tests used:
α3T115Cβ2 nAChR = α3T115Cβ2 nAChR (Rattus norvegicus, UniProt P04757+P12390, T142C); type: cell-based; details: for time constant τ of MTSET modification: response to 300 μM ACh + 10 μM Mor; for potentiation (IACh+Mor/IACh), sample traces Fig. 2: 300 μM ACh + 10 μM Mor
α3β2T150C nAChR = α3β2T150C nAChR (Rattus norvegicus, UniProt P04757+P12390, T176C); type: cell-based; details: for decrease of Mor potency / reduction of maximum Mor-evoked current (efficacy): after 100 μM reagent; for potentiation (IACh+Mor/IACh), sample traces Fig. 2: 300 μM ACh + 10 μM Mor; for potentiation: 10 μM Mor
α3A106Cβ2 nAChR = α3A106Cβ2 nAChR (Rattus norvegicus, UniProt P04757+P12390, A133C); type: cell-based
α3β2S148C nAChR = α3β2S148C nAChR (Rattus norvegicus, UniProt P04757+P12390, S174C); type: cell-based
α3β2 wt nAChR [1] = biological target: T1, α3β2 wt nAChR (Rattus norvegicus, UniProt P04757+P12390); type: cell-based
α3β2S192C nAChR = α3β2S192C nAChR (Rattus norvegicus, UniProt P04757+P12390, S218C); type: cell-based
α3S161Cβ2 nAChR = α3S161Cβ2 nAChR (Rattus norvegicus, UniProt P04757+P12390, S188C); type: cell-based
α3β2 wt nAChR [2] = biological target: T1, α3β2 wt nAChR; details: ref Wu et al., 2008, cited from earlier work
α3β2T193C nAChR = α3β2T193C nAChR (Rattus norvegicus, UniProt P04757+P12390, T219C); type: cell-based
α3E113R = details: ref Laureijs and Levandoski, unpublished; cited from earlier work
[3] = 100 μM MTSET + 200 μM ACh treatment, ACh + 10 μM Mor
[4] = 100 μM MTSET + 200 μM ACh, four 30-sec
[5] = relative to response to ACh alone at [ACh] ~ EC50
[6] = 100 μM MTSET applied alone, 2 min
[7] = after 2-min 100 μM MTSET co-applied with ACh
[8] = 100 μM MTSET co-applied with ACh, 2 min

Sequence of α3T115Cβ2 nAChR (P04757 26-499 T142C): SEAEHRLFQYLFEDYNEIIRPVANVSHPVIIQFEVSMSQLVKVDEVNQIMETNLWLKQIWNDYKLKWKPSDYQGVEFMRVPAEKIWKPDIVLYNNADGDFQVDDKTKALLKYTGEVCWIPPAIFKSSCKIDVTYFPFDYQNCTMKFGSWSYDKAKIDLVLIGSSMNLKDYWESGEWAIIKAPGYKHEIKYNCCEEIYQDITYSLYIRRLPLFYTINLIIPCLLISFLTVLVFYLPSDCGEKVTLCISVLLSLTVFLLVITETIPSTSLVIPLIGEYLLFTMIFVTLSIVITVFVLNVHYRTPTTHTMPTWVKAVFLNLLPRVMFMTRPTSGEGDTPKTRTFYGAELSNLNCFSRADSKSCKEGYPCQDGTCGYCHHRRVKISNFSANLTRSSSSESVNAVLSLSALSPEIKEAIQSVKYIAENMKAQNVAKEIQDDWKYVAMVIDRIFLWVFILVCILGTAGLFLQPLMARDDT
Sequence of α3T115Cβ2 nAChR (P12390 25-500): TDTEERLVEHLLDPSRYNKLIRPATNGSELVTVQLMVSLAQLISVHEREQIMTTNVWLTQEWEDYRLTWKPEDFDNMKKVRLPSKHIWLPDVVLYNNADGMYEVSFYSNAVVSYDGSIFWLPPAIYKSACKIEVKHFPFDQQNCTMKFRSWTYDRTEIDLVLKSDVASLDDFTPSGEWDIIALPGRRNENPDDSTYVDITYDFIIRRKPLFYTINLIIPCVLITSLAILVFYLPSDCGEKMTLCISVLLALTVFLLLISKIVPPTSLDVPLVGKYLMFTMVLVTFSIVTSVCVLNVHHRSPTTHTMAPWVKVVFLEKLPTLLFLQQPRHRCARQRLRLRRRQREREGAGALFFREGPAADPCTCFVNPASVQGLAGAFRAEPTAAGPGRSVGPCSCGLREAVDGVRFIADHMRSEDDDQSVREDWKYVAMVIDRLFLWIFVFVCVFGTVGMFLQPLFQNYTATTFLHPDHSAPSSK
Sequence of α3A106Cβ2 nAChR (P04757 26-499 A133C): as the sequence (P04757 26-499 T142C) above, with A108C, C117T counted along it
Sequence of α3A106Cβ2 nAChR (P12390 25-500): as the sequence (P12390 25-500) above
T1 sequence (P04757 26-499): as the sequence (P04757 26-499 T142C) above, with C117T counted along it
T1 sequence (P12390 25-500): as the sequence (P12390 25-500) above
Sequence of α3β2T150C nAChR (P04757 26-499): as the sequence (P04757 26-499 T142C) above, with C117T counted along it
Sequence of α3β2T150C nAChR (P12390 25-500 T176C): as the sequence (P12390 25-500) above, with T152C counted along it
Sequence of α3β2S148C nAChR (P04757 26-499): as the sequence (P04757 26-499 T142C) above, with C117T counted along it
Sequence of α3β2S148C nAChR (P12390 25-500 S174C): as the sequence (P12390 25-500) above, with S150C counted along it
Sequence of α3β2T193C nAChR (P04757 26-499): as the sequence (P04757 26-499 T142C) above, with C117T counted along it
Sequence of α3β2T193C nAChR (P12390 25-500 T219C): as the sequence (P12390 25-500) above, with T195C counted along it
Sequence of α3β2S192C nAChR (P04757 26-499): as the sequence (P04757 26-499 T142C) above, with C117T counted along it
Sequence of α3β2S192C nAChR (P12390 25-500 S218C): as the sequence (P12390 25-500) above, with S194C counted along it
Sequence of α3S161Cβ2 nAChR (P04757 26-499 S188C): as the sequence (P04757 26-499 T142C) above, with C117T, S163C counted along it
Sequence of α3S161Cβ2 nAChR (P12390 25-500, stated change not applied): as the sequence (P12390 25-500) above

Structure (SMILES): CS(=O)(=O)SCc1ccccc1 [MTSBn, benzylmethanethiosulfonate]
potentiation post/pre (α3T115Cβ2 nAChR; after 100 μM MTS reagent alone): 0.99 ± 0.10
reduction of ACh-evoked currents (α3T115Cβ2 nAChR; after 100 μM MTS reagent alone): 29 ± 9%
reduction of ACh/Mor-evoked currents (α3T115Cβ2 nAChR; after 100 μM MTS reagent alone): 30 ± 10%
decrease of Mor potency (α3β2T150C nAChR; four 30-sec doses): 4 fold
reduction of maximum Mor-evoked current (efficacy) (α3β2T150C nAChR; four 30-sec doses): 45%

time constant τ of MTSET modification (α3T115Cβ2 nAChR; 30 μM MTSET alone): 170 s and 167 ± 22 s
time constant τ of MTSET modification (α3T115Cβ2 nAChR; 30 μM MTSET co-applied with 100 μM Mor): 720 s and 719 ± 137 s
time constant τ of MTSET modification (α3T115Cβ2 nAChR; 30 μM MTSET co-applied with 300 μM ACh): 34 s and 34 ± 12 s
reduction of ACh-evoked currents (α3T115Cβ2 nAChR; after 100 μM MTS reagent alone): unchanged
reduction of ACh/Mor-evoked currents (α3T115Cβ2 nAChR; after 100 μM MTS reagent alone): 32 ± 9%
reduction of degree of potentiation (α3T115Cβ2 nAChR; after 100 μM MTS reagent alone): 31 ± 8%
decrease of Mor efficacy (α3T115Cβ2 nAChR; after 100 μM MTSET alone): 66%
decrease in efficacy of ACh/Mor concentration-response curve (α3β2T150C nAChR; [3]): 50%
decrease in potency of ACh/Mor concentration-response curve (α3β2T150C nAChR; [3]): 3 fold
decrease in ACh efficacy (maximum response at high ACh) (α3β2T150C nAChR; [4]): 75%
decrease in ACh potency after MTSET/agonist co-application (α3β2T150C nAChR; [4]): 4.5 fold
decrease of Mor potency (α3β2T150C nAChR; four 30-sec doses): without changing the potency
reduction of maximum Mor-evoked current (efficacy) (α3β2T150C nAChR; four 30-sec doses): 75 - 80%
Structure (SMILES): C[N+](C)(C)CCSS(C)(=O)=O.[Br-] [MTSET, [2-(trimethyl-ammonium)ethyl]methanesthiosulfonate bromide]

Structure (SMILES): Cc1ccsc1C=CC1=NCCCN1C.O=C(O)C(O)C(O)C(=O)O [Mor, 1,4,5,6-tetrahydro-1-methyl-2-(2-[3-methyl-2-thienyl]ethenyl)pyrimidine, tartrate salt]
EC50 (α3A106Cβ2 nAChR): 62 ± 11 µM
change in Mor potentiation after MTSET alone (α3A106Cβ2 nAChR; 100 μM MTSET alone, four 30-sec doses, 100 μM ACh): no change in potentiation outside of error
Mor-evoked Response nH (α3A106Cβ2 nAChR; Hill coefficient): 2.1 ± 0.7
Mor Potentiation IACh+Mor/IACh (α3A106Cβ2 nAChR; [ACh] ~ EC50 ± 10 μM Mor): 1.7 ± 0.2
Mor-evoked Response Emax (α3A106Cβ2 nAChR; [5]): 0.56 ± 0.05
EC50 (α3β2S148C nAChR): 110 ± 40 µM
Mor Potentiation % Change after MTS (α3β2S148C nAChR; [6]): -7 ± 10%
Mor-evoked Response nH (α3β2S148C nAChR; Hill coefficient): 1.4 ± 0.5
Mor Potentiation IACh+Mor/IACh (α3β2S148C nAChR; [ACh] ~ EC50 ± 10 μM Mor): 4.9 ± 1.0
Mor-evoked Response Emax (α3β2S148C nAChR; [5]): 0.36 ± 0.05
EC50 (α3T115Cβ2 nAChR): 30 µM
potentiation IACh+Mor/I30 μM ACh (α3T115Cβ2 nAChR; 30 μM ACh (~EC20)): 7.7
potentiation post/pre (α3T115Cβ2 nAChR; 50 μM Mor included with the MTSET/300 μM ACh co-application): 1.05 ± 0.07
Mor Potentiation % Change after MTS (α3T115Cβ2 nAChR; 100 μM MTSET co-applied with ACh (300 μM), 2 min): * -30 ± 4%
potentiation IACh+Mor/I300 μM ACh (α3T115Cβ2 nAChR; 300 μM ACh (~EC50)): 2.2
Mor-evoked Response nH (α3T115Cβ2 nAChR; Hill coefficient, pre MTSET in Fig. 8): 1.4 ± 0.1
Mor Potentiation IACh+Mor/IACh (α3T115Cβ2 nAChR; [ACh] ~ EC50 ± 10 μM Mor): 2.3 ± 0.3
Mor nH post MTSET (α3T115Cβ2 nAChR; after 100 μM MTSET alone, four 30-sec doses): 2.2 ± 1.4
Mor Emax post MTSET (α3T115Cβ2 nAChR; after 100 μM MTSET alone, normalized to 300 μM ACh before modification): 0.1 and 0.10 ± 0.01
potentiation (IACh+Mor/IACh), sample traces Fig. 2 (α3T115Cβ2 nAChR; [7]): 2.8
potentiation (IACh+Mor/IACh), sample traces Fig. 2 (α3T115Cβ2 nAChR; pre-MTSET): 4.5
Mor-evoked Response Emax (α3T115Cβ2 nAChR; relative to response to ACh alone at [ACh] ~ EC50 (300 μM), pre MTSET in Fig. 8): 0.3 and 0.29 ± 0.01
Mor Potentiation % Change after MTS (α3β2 wt nAChR [1]; [8]): 3 ± 3%
Mor Potentiation IACh+Mor/IACh (α3β2 wt nAChR [1]; [ACh] ~ EC50 ± 10 μM Mor): 1.9 ± 0.1
potentiation (IACh+Mor/IACh), sample traces Fig. 2 (α3β2 wt nAChR [1]; pre-MTSET, 100 μM ACh + 10 μM Mor): 2.8
EC50 (α3β2S192C nAChR): 20 ± 6 µM
change in Mor potentiation after MTSET alone (α3β2S192C nAChR; 100 μM MTSET alone, four 30-sec doses, 30 μM ACh): no change in potentiation outside of error
Mor-evoked Response nH (α3β2S192C nAChR; Hill coefficient): 1.8 ± 0.7
Mor Potentiation IACh+Mor/IACh (α3β2S192C nAChR; [ACh] ~ EC50 ± 10 μM Mor): 1.4 ± 0.1
Mor-evoked Response Emax (α3β2S192C nAChR; [5]): 0.08 ± 0.01
Mor Potentiation % Change after MTS (α3β2T150C nAChR; [6]): * 52 ± 17%
Mor-evoked Response nH (α3β2T150C nAChR; Hill coefficient): 2.3 ± 0.2
EC50 (α3β2T150C nAChR; Mor EC50, Control, pre-treatment control, Fig. 7): 20 ± 2 µM
EC50 (α3β2T150C nAChR; Mor EC50 after BrACh, after 100 μM BrACh, four 30-sec doses): 30 ± 5 µM
EC50 (α3β2T150C nAChR; Mor EC50 after MTSBn, after 100 μM MTSBn, four 30-sec doses): 80 ± 20 µM
EC50 (α3β2T150C nAChR; Mor EC50 after MTSEA, after 100 μM MTSEA, four 30-sec doses): 30 ± 1 µM
EC50 (α3β2T150C nAChR; Mor EC50 after MTSET, after 100 μM MTSET, four 30-sec doses): 20 ± 4 µM
EC50 (α3β2T150C nAChR; Mor-evoked Response EC50, Mor as agonist): 26 ± 1 µM
Mor Potentiation IACh+Mor/IACh (α3β2T150C nAChR; [ACh] ~ EC50 ± 10 μM Mor): 1.6 ± 0.1
Mor nH after BrACh (α3β2T150C nAChR; after 100 μM BrACh): 1.5 ± 0.4
Mor Emax after BrACh (α3β2T150C nAChR; after 100 μM BrACh, normalized to pre-treatment 300 μM Mor response): 0.96 ± 0.07
Mor nH after MTSBn (α3β2T150C nAChR; after 100 μM MTSBn): 2.7 ± 1.5
Mor Emax after MTSBn (α3β2T150C nAChR; after 100 μM MTSBn, normalized to pre-treatment 300 μM Mor response): 0.56 ± 0.07
Mor nH after MTSEA (α3β2T150C nAChR; after 100 μM MTSEA): 2.3 ± 0.3
Mor Emax after MTSEA (α3β2T150C nAChR; after 100 μM MTSEA, normalized to pre-treatment 300 μM Mor response): 0.20 ± 0.01
Mor nH after MTSET (α3β2T150C nAChR; after 100 μM MTSET): 3.4 ± 1.9
Mor Emax after MTSET (α3β2T150C nAChR; after 100 μM MTSET, normalized to pre-treatment 300 μM Mor response): 0.24 ± 0.02
potentiation (IACh+Mor/IACh), sample traces Fig. 2 (α3β2T150C nAChR; [7]): 7.5
potentiation (α3β2T150C nAChR; measured at ~EC50 ACh, after MTSET treatment): 4.0
potentiation (α3β2T150C nAChR; measured at ~EC50 ACh, before MTSET treatment): 1.6
potentiation (α3β2T150C nAChR; measured at ~EC75 ACh, after MTSET treatment): 3.0
potentiation (α3β2T150C nAChR; measured at ~EC75 ACh, before MTSET treatment): 1.5
Mor Emax, Control (α3β2T150C nAChR; normalized to pre-treatment 300 μM Mor response): 1.00
potentiation (IACh+Mor/IACh), sample traces Fig. 2 (α3β2T150C nAChR; pre-MTSET): 3.3
I300 μM Mor/I300 μM ACh (pre) (α3β2T150C nAChR; pre-treatment): 0.14 ± 0.01
Mor nH, Control (α3β2T150C nAChR; pre-treatment control, Fig. 7): 2.2 ± 0.4
Mor-evoked Response Emax (α3β2T150C nAChR; [5]): 0.33 ± 0.04
Mor Potentiation % Change after MTS (α3S161Cβ2 nAChR; [6]): 3 ± 8%
Mor Potentiation IACh+Mor/IACh (α3S161Cβ2 nAChR; [ACh] ~ EC50 ± 10 μM Mor): 1.3 ± 0.1
Mor-evoked Response nH (α3β2 wt nAChR [2]; Hill coefficient): 3.1 ± 1.6
Mor-evoked Response Emax (α3β2 wt nAChR [2]; [5]): 0.2
EC50 (α3β2T193C nAChR): 20 ± 3 µM
Mor Potentiation % Change after MTS (α3β2T193C nAChR; [8]): 2 ± 4%
Mor-evoked Response nH (α3β2T193C nAChR; Hill coefficient): 1.7 ± 0.3
Mor Potentiation IACh+Mor/IACh (α3β2T193C nAChR; [ACh] ~ EC50 ± 10 μM Mor): 1.5 ± 0.1
Mor-evoked Response Emax (α3β2T193C nAChR; [5]): 0.24 ± 0.1
Mor potentiation (α3E113R): completely abolishes Mor potentiation
